In US20080306007A1, “AGENTS FOR PROPHYLAXIS OR TREATMENT OF NEUROLOGICAL RELATED DISEASES AND CONDITIONS” (Newcastle Innovation Limited, priority 2007, published 2008):

Assays:
[1] = system: synaptosomes (synaptic vesicle turnover); test: SV turnover assay (FM2-10 loading/unloading) in synaptosomes; assay type: cell-based, rat
Procedure: In all SV recycling studies synaptosomes were prepared from rat cerebral cortex by centrifugation on discontinuous percoll gradients (Dunkley et al. 1986). The glutamate release assay was performed as described before (Cousin and Robinson 2000a). Data is presented as Ca^2+-dependent glutamate release, calculated as the difference between release in plus and minus Ca^2+ solutions. Penetratin peptides (Genemed Synthesis) were preincubated with the synaptosomes for 30 min before stimulation and had no effect on Ca^2+-independent release of glutamate.
(§1) Loading of FM2-10 (Molecular Probes) into recycling synaptosomal SVs was measured as previously described. Data is presented as Ca^2+-dependent FM2-10 unloading, which is the difference between release after loading in plus and minus Ca^2+ solutions. Where indicated, synaptosomes were preincubated with penetratin peptide for 30 min prior to stimulation of FM2-10 loading. […] The same assay was used to monitor the effect of penetratin peptide on SV exocytosis. However, in this instance, the synaptosomes were loaded with FM2-10 in plus Ca^2+ Krebs-like solution and, where indicated, were preincubated with penetratin peptide for 30 min prior to stimulation of FM2-10 unloading. Data is presented as Ca^2+-dependent FM2-10 unloading. The SV internalisation assay was performed as previously described.
SVE in synaptosomes was measured to determine whether the phosphorylation sites in dynamin I play a direct role in SVE. Since isolated nerve terminals cannot be transfected with DNA, a membrane-permeable peptide strategy was employed. Mimetic peptides (DynI769-784AA (SEQ ID No. 8) and DynI769-784EE (SEQ ID No. 9)) were designed corresponding to the amino acid sequence of the dynamin I phospho-box (FIG. 5a) and were tagged with a penetratin heptapeptide RRMKWKK (SEQ ID No. 12) to facilitate their delivery into synaptosomes. Briefly, synaptosomes were preincubated in the presence or absence of either penetratin peptide (250 μM) prior to FM2-10 loading stimulated by 30 mM KCl. Accumulated FM2-10 was unloaded by another KCl stimulus (indicated by the solid bar). […] If the phosphorylation-regulated syndapin I interaction itself is essential for SVE, the penetratin-linked peptides may inhibit the process. […] The DynI769-784AA peptide (250 μM) inhibited turnover by more than 40% (57.1±2.1% of control), compared to less than 20% with the DynI769-784EE peptide (250 μM, 81.1±2.4% of control).

[2] = system: synaptosomes (SV retrieval from the plasma membrane); test: FM2-10 SV internalisation assay (purified SVs from synaptosomes); assay type: cell-based, rat
Procedure: as §1
If SVE was arrested before SV fission occurred, […]. SVs were purified and their fluorescence values were corrected for dye uptake in the absence of Ca^2+ (Ca^2+-dependent) and normalised to control (n=3, mean ±s.e.m.).

Substance: DynI769-784AA: Dynamin I phospho-box mimetic peptide (residues 769-784), AA mutant, tagged with penetratin heptapeptide RRMKWKK (RRMKWKKPAGRRAPTSAPTPQRR; listed as Rattus norvegicus)
- inhibition of SV turnover ([1]; peptide 250 μM): more than 40%
- SV turnover ([1]; peptide 250 μM, 30 min preincubation, FM2-10 loading with 30 mM KCl): 57.1±2.1 % of control
- retrieval efficiency (SV turnover/exocytosis) ([1]; using data from either exocytosis assay, value below one = selective SVE inhibition): robust inhibition
- inhibition of FM2-10 accumulation in SVs [2]: approximately 35%
- FM2-10 accumulation in purified SVs (Ca2+-dependent) ([2]; n=3, mean ± s.e.m.): 64.9±5.5 % of control
